Data: ChEMBL document CHEMBL5346964, “Discovery of LNP1892: A Precision Calcimimetic for the Treatment of Secondary Hyperparathyroidism” (J Med Chem, 2023)

Key:
[1] = AUC in Sprague-Dawley rat at 10 mg/kg, po measured upto 24 hrs by LC/MS-MS analysis; type: ADME, organism-based; parameters: time < 24 hrs, dose 10 mg/kg, route po; details: in vivo
[2] = Plasma protein binding in human; type: ADME; details: read-out: PPB
[3] = Chemical stability of the compound at pH 4 measured after 0.5 to 4 hrs; type: physicochemical; details: buffer, time 0.5-4 hrs
[4] = Metabolic stability in mouse liver cytosol measured upto 60 mins by LC-MS/MS method; type: ADME, subcellular; details: read-out: Stability
[5] = biological target: T1, Extracellular calcium-sensing receptor (Homo sapiens, UniProt P41180); assay: Agonist activity at human CaSR expresssed in HEK293 cells in presence of glucose by Fluo4NW dye based FLIPR assay; type: functional, cell-based; details: read-out: EC50
T1 sequence (P41180 whole entry): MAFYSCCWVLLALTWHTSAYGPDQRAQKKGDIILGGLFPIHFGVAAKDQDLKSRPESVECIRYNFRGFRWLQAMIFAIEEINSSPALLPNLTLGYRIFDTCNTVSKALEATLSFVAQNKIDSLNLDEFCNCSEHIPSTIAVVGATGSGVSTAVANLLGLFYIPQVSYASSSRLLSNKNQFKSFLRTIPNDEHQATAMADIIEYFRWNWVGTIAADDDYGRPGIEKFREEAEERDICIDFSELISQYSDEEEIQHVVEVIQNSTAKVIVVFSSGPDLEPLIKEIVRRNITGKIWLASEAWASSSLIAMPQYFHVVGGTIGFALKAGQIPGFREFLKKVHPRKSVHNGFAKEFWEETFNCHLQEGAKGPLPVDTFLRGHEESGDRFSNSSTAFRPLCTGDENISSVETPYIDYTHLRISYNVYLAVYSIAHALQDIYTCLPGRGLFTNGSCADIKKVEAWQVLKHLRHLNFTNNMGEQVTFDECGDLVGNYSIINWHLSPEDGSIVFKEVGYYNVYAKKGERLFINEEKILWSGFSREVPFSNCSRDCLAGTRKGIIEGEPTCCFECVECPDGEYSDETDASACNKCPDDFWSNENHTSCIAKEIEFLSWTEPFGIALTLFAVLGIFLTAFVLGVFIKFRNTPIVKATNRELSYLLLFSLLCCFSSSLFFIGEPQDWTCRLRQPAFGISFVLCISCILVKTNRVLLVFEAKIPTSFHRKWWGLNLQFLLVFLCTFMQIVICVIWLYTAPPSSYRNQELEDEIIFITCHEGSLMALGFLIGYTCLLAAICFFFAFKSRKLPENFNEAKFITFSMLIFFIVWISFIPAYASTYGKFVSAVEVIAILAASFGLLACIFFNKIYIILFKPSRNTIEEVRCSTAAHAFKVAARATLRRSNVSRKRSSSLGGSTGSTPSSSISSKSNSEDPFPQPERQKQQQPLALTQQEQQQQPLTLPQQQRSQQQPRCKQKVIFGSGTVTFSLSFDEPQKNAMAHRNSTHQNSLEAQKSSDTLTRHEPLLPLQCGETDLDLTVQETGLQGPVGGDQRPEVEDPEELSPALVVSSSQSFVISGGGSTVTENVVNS

[6] = Kinetic solubility of compound in SIF upto 500 uM measured after 16 hrs under shaking condition by UV-visible method; type: physicochemical; details: read-out: Kinetic_solubility
[7] = Effect on parathyroid hormone in overnight fasted Sprague-Dawley rat assessed as reduction in plasma PTH level at 10 mg/kg, po measured after 4 hrs of post treatment by sandwich ELISA analysis (reference value: 18%); type: functional; parameters: scale not given: the % may be the effect or the level left
[8] = Effect on parathyroid hormone in overnight fasted Sprague-Dawley rat assessed as reduction in plasma PTH level at 10 mg/kg, po measured after 6 hrs of post treatment by sandwich ELISA analysis (reference value: 33%); type: functional; parameters: scale not given: the % may be the effect or the level left
[9] = Effect on parathyroid hormone in overnight fasted Sprague-Dawley rat assessed as reduction in plasma PTH level at 3 mg/kg, po measured after 4 hrs of post treatment by sandwich ELISA analysis; type: functional; parameters: scale not given: the % may be the effect or the level left
[10] = Cmax in Sprague-Dawley rat at 10 mg/kg, po administered as solution measured upto 24 hrs by LC-MS/MS analysis; type: ADME, organism-based; parameters: dose 10 mg/kg, time < 24 hrs, route po; details: in vivo
[11] = Clearance in Sprague-Dawley rat at 10 mg/kg, po administered as solution measured upto 24 hrs by LC-MS/MS analysis; type: ADME, organism-based; details: in vivo
[12] = test system: Rattus norvegicus; assay: Effect on parathyroid hormone in po dosed overnight fasted Sprague-Dawley rat assessed as reduction in plasma PTH level measured after 0.5 to 6 hrs of post treatment by sandwich ELISA analysis; type: functional, organism-based; details: dose 3-30 mg/kg, time 0.5-6 hrs
[13] = Protein binding in mouse plasma incubated for 16 hrs under shaking condition by rapid equilibrium dialysis based LC-MS/MS method; type: ADME, cell-free; details: read-out: PPB
[14] = AUC(0 to t) in human at 10 mg/kg, po administered as single dose; type: ADME, organism-based; parameters: dose 10 mg/kg, route po; details: in vivo
[15] = Kinetic solubility of compound upto 500 uM at pH 9 measured after 16 hrs under shaking condition by UV-visible method; type: physicochemical; details: buffer, read-out: Kinetic_solubility
[16] = Oral bioavailability in Sprague-Dawley rat at 10 mg/kg administered as suspension measured upto 24 hrs by LC-MS/MS analysis; type: ADME, organism-based; details: in vivo
[17] = test system: Rattus norvegicus; assay: Subchronic effect on parathyroid hormone in overnight fasted adenine diet-induced chronic kidney disease Wistar rat model plasma assessed as reduction in plasma PTH level at 0.1 mg/kg, po qd measured after 27 days of post treatment by sandwich ELISA analysis; type: functional; parameters: scale not given: the % may be the effect or the level left; details: time 27 day
[18] = Half life in Sprague-Dawley rat at 1 mg/kg, iv measured upto 24 hrs by LC-MS/MS analysis; type: ADME, organism-based; details: in vivo
[19] = Cmax in Sprague-Dawley rat at 10 mg/kg, po administered as suspension measured upto 24 hrs by LC-MS/MS analysis; type: ADME, organism-based; parameters: dose 10 mg/kg, time < 24 hrs, route po; details: in vivo
[20] = Kinetic solubility of compound in SGF upto 500 uM measured after 16 hrs under shaking condition by UV-visible method; type: physicochemical; details: read-out: Kinetic_solubility
[21] = Kinetic solubility of compound in water upto 500 uM measured after 16 hrs under shaking condition by UV-visible method; type: physicochemical; details: read-out: Kinetic_solubility
[22] = Volume of distribution at steady state in cynomolgus monkey at 1 mg/kg, iv measured upto 24 hrs by LC/MS-MS analysis; type: ADME, organism-based, Macaca fascicularis; details: in vivo, read-out: Vdss
[23] = biological target: CYP2E1 (Homo sapiens, UniProt P05181); assay: Inhibition of CYP2E1 in human liver microsomes at 10 uM preincubated for 5 mins followed by NADPH addition by LC-MS/MS analysis relative to control; type: ADME, Microsome
Chain of CYP2E1 (P05181 whole entry): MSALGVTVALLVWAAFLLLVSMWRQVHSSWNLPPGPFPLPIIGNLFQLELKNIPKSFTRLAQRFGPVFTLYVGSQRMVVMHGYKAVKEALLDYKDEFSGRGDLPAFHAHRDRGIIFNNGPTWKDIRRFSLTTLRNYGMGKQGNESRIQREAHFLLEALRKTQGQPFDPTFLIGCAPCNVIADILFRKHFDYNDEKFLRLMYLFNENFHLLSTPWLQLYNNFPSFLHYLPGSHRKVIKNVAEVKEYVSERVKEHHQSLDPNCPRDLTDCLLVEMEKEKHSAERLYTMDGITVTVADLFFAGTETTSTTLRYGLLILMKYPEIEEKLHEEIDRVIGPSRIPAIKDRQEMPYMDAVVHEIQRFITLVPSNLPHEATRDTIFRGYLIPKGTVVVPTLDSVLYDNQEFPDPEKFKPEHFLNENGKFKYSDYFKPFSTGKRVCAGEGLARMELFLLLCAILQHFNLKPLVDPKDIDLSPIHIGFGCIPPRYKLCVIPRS

[24] = Metabolic stability in dog liver S9 fraction measured upto 60 mins by LC-MS/MS method; type: ADME, subcellular, Canis lupus familiaris; details: read-out: Stability
[25] = test system: Rattus norvegicus; assay: Acute effect on parathyroid hormone in overnight fasted adenine diet-induced chronic kidney disease Wistar rat model assessed as reduction in plasma PTH level at 10 mg/kg, po measured after 4 hrs of post treatment by sandwich ELISA analysis; type: functional; parameters: scale not given: the % may be the effect or the level left
[26] = Metabolic stability in rat liver cytosol measured upto 60 mins by LC-MS/MS method; type: ADME, subcellular; details: read-out: Stability
[27] = Volume of distribution at steady state in Sprague-Dawley rat at 10 mg/kg, po administered as solution measured upto 24 hrs by LC-MS/MS analysis; type: ADME, organism-based; details: in vivo
[28] = Stability in monkey plasma measured up to 4 hrs by LC-MS/MS method; type: ADME, cell-free, Macaca mulatta; details: rhesus monkey, read-out: Stability

Cc1ccc([C@@H]2C[C@H](CN[C@H](C)c3cccc4ccccc34)Oc3ccccc32)cc1C(=O)O.Cl
AUC at 24 h [1]: 71 µM·h
fraction unbound [2]: < 0.01
Stability [3]: Stable
remaining at 1 h [4]: > 80%
EC50 [5]: 6.4 nM
solubility kinetic at 16 h, 500 µM [6]: > 300 µM
Activity [7]: 88%
Activity [8]: 45%
Activity [9]: 74%
Cmax [10]: 14 µM
CL/F [11]: 6 mL/min/kg
Activity [12]: Dose-Dependent Effect
fraction unbound at 16 h [13]: < 0.01
AUC(0-t) [14]: 1840 ng·h/mL
solubility kinetic at 16 h, 500 µM [15]: > 200 µM
bioavailability [16]: 33%
Activity [17]: 62%
half-life [18]: 4 h
Cmax [19]: 4 µM
solubility kinetic at 16 h, 500 µM [20]: > 200 µM
solubility kinetic at 16 h, 500 µM [21]: > 300 µM
Vd [22]: 20 L/kg
inhibition at 10 µM [23]: 0%
remaining at 1 h [24]: > 80%
Activity [25]: 97%
remaining at 1 h [26]: > 80%
Vdss [27]: 0.6 L/kg
remaining at 4 h [28]: > 80%
